Article PMC11428108 (Frontiers in Molecular Neuroscience, 2024)
“Also recorded” adds a separate entry of the source.

What was measured:
[1] = target: T1, human (α4)2(β2)2α5 nAChRs (Homo sapiens, UniProt P17787+P30532+P43681); assay: FLEXstation membrane potential assay in HEK cells stably expressing (α4)2(β2)2α5 nAChRs; assay type: cell-based
T1 construct: expressed in transfected cells
From the text: Human embryonic kidney (HEK) cell lines stably expressing human (α4)2(β2)2β2/α4 (α4β2*) nAChRs, (α4)2(β2)2α5 nAChRs, (α4)2(β2)2β3 nAChRs, (α3)2(β4)2α3/β4 (α3β4*) nAChRs, (α3)2(β2)2α3/β2 (α3β2*) nAChRs, (α3)2(β4)2α5 nAChRs, or (α3)2(β2)2α5 nAChRs were maintained as described previously ([Wang et al., 2015]; [Kuryatov et al., 2005]; [Caligiuri et al., 2022]). The FLEXstation bench top scanning fluorometer from Molecular Devices was used to assay nAChR function in these cells, according to published protocols ([Wang et al., 2015]; [Kuryatov et al., 2005]). The membrane potential kit (Molecular Devices) was used according to the manufacturer’s protocols. Serial dilutions of SR9883 were manually added to the assay plate 15 min prior to recording. […] Compound dilutions were prepared in V-shaped 96-well plates (Fisher Scientific Co.) and added to cell culture wells at a rate of 20 μL s^−1 during recording. Cells were incubated at 29°C for 6–20 h prior to assays to upregulate nAChRs ([Wang et al., 2015]; [Kuryatov et al., 2005]). Data points were averaged from 3 to 4 responses from separate wells. Potency and efficacy were calculated using the Hill equation as described previously ([Wang et al., 2015]).
Concentration-response curves of SR9883 actions in nAChR-expressing HEK cells and oocytes were fitted to the Hill equation using a nonlinear least squares curve fit method and efficacy and potency values were calculated as previously described ([Wang et al., 2015]). Plasma and brain levels of SR9983 after oral administration were compared using a two-tailed paired t test. […] For the ICSS threshold experiment, percentages of baseline reward threshold scores were calculated by expressing the absolute threshold scores as a percentage of the scores obtained during baseline. The baseline values were the mean thresholds on the three sessions prior to drug injections. Response latency data were analyzed in the same manner as the threshold data. […] Effects of SR9883 on responding for food pellets in rats was analyzed by a two-tailed paired t test. […] Significant main or interaction effects in ANOVAs were followed by Bonferroni or Newman–Keuls post-hoc tests as appropriate. All statistical analyses were performed using GraphPad Prism software with α set to 0.05.

[2] = system: human (α3)2(β2)2α3/β2 (α3β2*) nAChRs; assay: FLEXstation membrane potential assay in HEK cells stably expressing α3β2* nAChRs; assay type: cell-based; settings: SR9883 0.0005–10 μM
From the text: (§1) Human embryonic kidney (HEK) cell lines stably expressing human (α4)2(β2)2β2/α4 (α4β2*) nAChRs, (α4)2(β2)2α5 nAChRs, (α4)2(β2)2β3 nAChRs, (α3)2(β4)2α3/β4 (α3β4*) nAChRs, (α3)2(β2)2α3/β2 (α3β2*) nAChRs, (α3)2(β4)2α5 nAChRs, or (α3)2(β2)2α5 nAChRs were maintained as described previously ([Wang et al., 2015]; [Kuryatov et al., 2005]; [Caligiuri et al., 2022]). The FLEXstation bench top scanning fluorometer from Molecular Devices was used to assay nAChR function in these cells, according to published protocols ([Wang et al., 2015]; [Kuryatov et al., 2005]). The membrane potential kit (Molecular Devices) was used according to the manufacturer’s protocols. Serial dilutions of SR9883 were manually added to the assay plate 15 min prior to recording. […] Potency and efficacy were calculated using the Hill equation as described previously ([Wang et al., 2015]).
(§2) Concentration-response curves of SR9883 actions in nAChR-expressing HEK cells and oocytes were fitted to the Hill equation using a nonlinear least squares curve fit method and efficacy and potency values were calculated as previously described ([Wang et al., 2015]). […] For the ICSS threshold experiment, percentages of baseline reward threshold scores were calculated by expressing the absolute threshold scores as a percentage of the scores obtained during baseline. […] Response latency data were analyzed in the same manner as the threshold data. […]

[3] = system: male C57BL/6J mice; assay: Intracranial self-stimulation (ICSS) thresholds in mice with saline or nicotine osmotic minipumps; assay type: in vivo; settings: SR9883 10 mg kg^−1 IP
From the text: Mice were anesthetized with a mixture of isoflurane (1–3%) and oxygen vapor then positioned in a stereotaxic frame in the flat-skull position (Kopf Instruments) ([Fowler et al., 2013]; [Johnson et al., 2008]). A stainless-steel bipolar electrode (Plastics One) was implanted into the lateral hypothalamus according to the following stereotaxic coordinates: Anterior/Posterior: −0.5 mm from bregma; […] Dorsal/Ventral: −5.0 mm from brain surface ([Fowler et al., 2013]; [Johnson et al., 2008]; [Paxinos and Franklin, 2001]). Mice were permitted 72 h to recover from surgery prior to training in the ICSS procedure. Mice were permitted to respond for intracranial electrical stimulation according to a modification of the discrete-trial current-threshold procedure developed by Kornetsky and colleagues ([Gill et al., 2004]), as previously described ([Fowler et al., 2013]; [Johnson et al., 2008]). […] The frequency of the stimulation was selected for each mouse so that current-intensity thresholds were within 25 to 400 μA, permitting threshold elevations and reductions to be reliably detected. This frequency for each mouse was held constant throughout the experiment. […] The time between the onset of the non-contingent stimulus and a positive response was recorded as the response latency. […] Effects of intraperitoneal injections of SR9883 on ICSS thresholds were assessed >7 days after minipump implantation. Concentration-response curves of SR9883 actions in nAChR-expressing HEK cells and oocytes were fitted to the Hill equation using a nonlinear least squares curve fit method and efficacy and potency values were calculated as previously described ([Wang et al., 2015]). […] For the ICSS threshold experiment, percentages of baseline reward threshold scores were calculated by expressing the absolute threshold scores as a percentage of the scores obtained during baseline. […] Response latency data were analyzed in the same manner as the threshold data. […] Effects of SR9883 on responding for food pellets in rats was analyzed by a two-tailed paired t test. […]

[4] = system: human (α3)2(β4)2α3/β4 (α3β4*) nAChRs; assay: FLEXstation membrane potential assay in HEK cells stably expressing α3β4* nAChRs; assay type: cell-based; settings: SR9883 0.0005–10 μM
From the text: as §1, §2

T1 sequence (P43681 29-627 limits assumed): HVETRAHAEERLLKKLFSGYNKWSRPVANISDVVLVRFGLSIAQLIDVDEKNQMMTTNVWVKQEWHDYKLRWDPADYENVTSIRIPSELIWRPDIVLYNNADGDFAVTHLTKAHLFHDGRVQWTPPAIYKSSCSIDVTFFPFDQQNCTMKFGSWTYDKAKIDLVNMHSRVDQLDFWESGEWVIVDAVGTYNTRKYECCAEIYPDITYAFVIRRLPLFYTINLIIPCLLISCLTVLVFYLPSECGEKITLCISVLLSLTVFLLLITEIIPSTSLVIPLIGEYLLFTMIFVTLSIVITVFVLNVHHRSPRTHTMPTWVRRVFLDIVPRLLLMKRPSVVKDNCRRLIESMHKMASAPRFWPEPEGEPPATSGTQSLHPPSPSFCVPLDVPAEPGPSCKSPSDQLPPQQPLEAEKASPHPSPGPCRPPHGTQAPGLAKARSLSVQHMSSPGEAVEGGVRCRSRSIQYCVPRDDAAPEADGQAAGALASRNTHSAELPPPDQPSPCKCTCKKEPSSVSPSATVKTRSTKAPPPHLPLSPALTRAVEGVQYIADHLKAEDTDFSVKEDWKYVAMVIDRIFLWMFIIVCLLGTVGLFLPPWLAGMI
T1 sequence (P17787 26-502): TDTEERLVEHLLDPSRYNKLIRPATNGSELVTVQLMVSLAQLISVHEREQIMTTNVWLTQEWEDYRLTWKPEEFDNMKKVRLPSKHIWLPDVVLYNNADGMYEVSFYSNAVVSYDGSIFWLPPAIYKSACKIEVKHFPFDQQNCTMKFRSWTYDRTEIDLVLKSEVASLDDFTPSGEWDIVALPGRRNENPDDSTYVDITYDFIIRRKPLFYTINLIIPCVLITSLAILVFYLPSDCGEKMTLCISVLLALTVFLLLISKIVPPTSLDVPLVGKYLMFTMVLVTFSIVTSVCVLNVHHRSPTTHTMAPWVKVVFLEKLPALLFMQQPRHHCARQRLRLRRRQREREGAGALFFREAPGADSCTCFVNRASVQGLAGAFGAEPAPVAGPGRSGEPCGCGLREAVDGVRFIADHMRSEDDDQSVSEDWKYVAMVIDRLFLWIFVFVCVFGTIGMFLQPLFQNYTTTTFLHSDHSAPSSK
T1 sequence (P30532 23-468): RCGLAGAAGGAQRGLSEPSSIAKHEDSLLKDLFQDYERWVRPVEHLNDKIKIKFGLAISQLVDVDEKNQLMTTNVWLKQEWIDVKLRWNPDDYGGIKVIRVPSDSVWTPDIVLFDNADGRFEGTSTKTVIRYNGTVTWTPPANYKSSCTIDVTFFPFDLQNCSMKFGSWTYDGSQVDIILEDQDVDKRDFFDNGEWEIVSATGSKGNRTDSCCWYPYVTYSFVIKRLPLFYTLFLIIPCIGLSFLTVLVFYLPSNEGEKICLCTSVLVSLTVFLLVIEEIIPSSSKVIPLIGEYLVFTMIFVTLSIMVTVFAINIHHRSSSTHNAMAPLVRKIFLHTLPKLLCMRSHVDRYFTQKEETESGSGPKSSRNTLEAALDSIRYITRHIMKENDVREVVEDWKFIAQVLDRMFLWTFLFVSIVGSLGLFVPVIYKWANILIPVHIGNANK

`N#Cc1cccc(-n2nnc(-c3cccnc3)n2)c1` [SR9883, 3-(5-(pyridin-3-yl)-2H-tetrazol-2-yl)benzonitrile] was tested, and the “Effect on maximum response to nicotine” value ([1]; SR9883 10 μM, nicotine 0.001–50 μM) was “no effect”, the EC50 ([1]; SR9883 0.0005–10 μM on response to EC20-30 nicotine, HEK cells, ±SEM) was 321 ± 98.2 nM and the nHill ([1]; SR9883 0.0005–10 μM on response to EC20-30 nicotine, ±SEM) was 0.8620 ± 0.1564. The Efficacy ([1]; response to EC20-30 nicotine with SR9883 relative to nicotine alone, ±SEM) was 146.18 ± 10.93%, the “EC50 (enhancement of response to EC20-30 nicotine)” value [2] was “no effect; also recorded: No enhancement” and the ICSS response latencies ([3]; minipumps delivering either saline or nicotine) was “had no effect”. For the same compound, the ICSS thresholds ([3]; nicotine-delivering osmotic minipumps (24 mg kg^−1 per day), p = 0.0278 vs vehicle) was “elevated”, the ICSS thresholds ([3]; saline-delivering osmotic minipumps) was “had no effect” and the “EC50 (enhancement of response to EC20-30 nicotine)” value [4] was “no effect; also recorded: No enhancement”.
